# Entries after “also recorded” stand apart in the source; their conditions may differ.
# Tests used:
# A2780 cells = experiment: MTT cytotoxicity assay; format: cell-based, human; settings: for % (absorbance relative to control) / Abs.: 72 h; for Abs.: absorbance at 570 nm (MTT); for IC50: A2780, 72 h continuous treatment, MTT
# Experimental: 1—Cell lines and cell culture. The human ovarian adenocarcinoma cell line A2780 was used to evaluate the antiproliferative activity of taxoids. These cells were grown in either RPMI medium supplemented with 10% fetal bovine serum and penicillin-streptomycin antibiotics. Cells were maintained in culture at 37° C. in an atmosphere of 5% CO2.
# 2—Cytotoxicity assay. Exponentially growing cells (2-3×10^3 cells/[…]) were seeded in 96-well plates and incubated for 16 h. Cells were then treated continuously with the extracts. 72 h later, cell survival was evaluated by replacing the culture media with […] fresh medium containing 10 mM 4-(2-hydroxyethyl)-1 -piperazineethamesulfonic acid buffer, pH 7.4. and […] of 2.5 mg/ml of 3-(4,5-dimethylthiazo-2-yl)-2,5-diphenyltetrazolium bromide (MTT) in PBS, pH 7.4, were then added. After as 3-4 h of incubation at 37° C., the medium and MTT were removed, and […] of DMSO was added to dissolve the precipitate of reduced MTT, followed by addition of […] glycine buffer (0.1M glycine plus 0.1M NaCl, pH 10.5). The formazan crystals were then dissolved and the absorbance was determined at 570 nm with a microplate reader (BIORAD, model 450). The MTT assay distinguished between viable and non-viable cells on the basis for the requirement of physiologically active mitochondria to metabolize the MTT only in viable cells. The IC50 was calculated as the concentration of drug causing a 50% inhibition in the absorbance compared to cells treated with solvent alone, Table I.
# [1] = test system: DA3 mammary adenocarcinoma tumors; experiment: In vivo study using DA3 cell model (tumour volume); design: species or system mouse
# Source text: Origin: The DA3 cell line used in this study was derived from a hyperplastic mammary outgrowth (preneoplastic lesion) treated with 7,12-dimethylbenzanthracene (DMBA). DMBA-treated explant was then transplanted into the mammary glands of a female BALB/c mouse, and the resulting tumor was used to establish the DA3 cell line. DA3 is an immunogenic and non-metastatic mammary adenocarcinoma.
# Source: The cell line used in our study was originally obtained from Dr. Medina in 1993. Stocks of these cells were generated and stored during early passages in liquid nitrogen. One vial from this early stock was cultured and cells generated were used to confirm the absence of viral and mycoplasma infections. Cells were then propagated and stocks of these cells were established and stored in liquid nitrogen for further studies with Dup compounds.
# Cell culture: DA3 cells were maintained in RPMI 1640 medium supplemented with 1M mercaptoethanol, 1M Hepes buffer solution, […] sodium pyruvate, 200 mM L-glutamine, 10 mM non-essential amino acids, 1M vitamins, 10% fetal bovine serum, 1% penicillin-streptomycin. Cells were maintained at 37° C. under 5% CO2.
# Animal. […] Mice were maintained at the Lady Davis Institute [LDI] Animal Care Facility.
# Tumor cell inoculation and treatments. After one week acclimatisation, mice were randomized into a group of 5 per cage. Cages were randomly assigned to specific experimental groups. The mice were then labeled by numbers using the “ear punching” method. DA3 cells were transplanted subcutaneously to mice, as a suspension of tumor cells [1×10^6 viable cells per 0.1 ml], in the right flank. All animals were inoculated at the same site.
# For tumor induction, cells were grown to 70% confluence in complete medium and then collected using trypsin-EDTA solution [0.05% trypsin, 0.53 mM EDTA-4Na in HBSS Ca^++, Mg^++ and NaHCO3 free]. cells were then centrifuged and washed three times with phosphate buffer solution and resuspended at a dilution of 0.1 to 1×10^6 cells/0.1 ml. […]
# tubulin = experiment: In vitro microtubule assay (tubulin polymerisation, absorbance at 350 nm); format: biochemical, calf; settings: for concentration dependence of tubulin polymerisation: 5 μM and 10 μM (FIG. 2); for enhancement of tubulin polymerisation / antimitotic activity: same concentration (10 μM), FIG. 3; for tubulin polymerisation / antimitotic activity compared with paclitaxel: same concentration (FIGS. 1-4)
# [2] = Toxicity in DA3 tumor-bearing BALB/c mice (body weight, mortality); settings: given twice at 40 mg/kg, iv
# Source text: Animal. Female BALB/c mice (Charles River Inc.) were used to grow DA3 tumors. Mice were maintained at the Lady Davis Institute [LDI] Animal Care Facility.
# Treatment was initiated when tumors become palpable. Drug was given twice (day 1 and day 3) by iv. Control animals were given the same volume of saline solution. The dose of each drug was normalized to mouse body weight.
# Tumor measurement. animals were examined every day but the tumor growth was monitored every second or third day using calipers. Parameters measured are: tumor measured along the longest axis (length) and the perpendicular shortest axis (width) and the relative tumor volume (in cm^3) was calculated by the formula: [Length (cm)×(width cm)^2]/2. Tumors which reach the limit size permitted by the Canadian regulation on the use of laboratory animals, or showing any apparent distress or discomfort were immediately sacrificed independently of the experimental protocol [usually 2-3 cm^3 but this depend on animal status and the decision is taken by the animal room personnel]. Animals were subjected, on a daily basis, to general examination.
# [3] = listed as semi-synthetic Canadensol
Compound,% (absorbance relative to control) (A2780 cells; 0.2 nM) [%],Abs. (A2780 cells; 0.2 nM),% (absorbance relative to control) (A2780 cells; 2 nM) [%],Abs. (A2780 cells; 2 nM),% (absorbance relative to control) (A2780 cells; 10 nM) [%],Abs. (A2780 cells; 10 nM),% (absorbance relative to control) (A2780 cells; 20 nM) [%],Abs. (A2780 cells; 20 nM),% (absorbance relative to control) (A2780 cells; 100 nM) [%],Abs. (A2780 cells; 100 nM),% (absorbance relative to control) (A2780 cells; 200 nM) [%],Abs. (A2780 cells; 200 nM),IC50 (A2780 cells; Homo sapiens) [nM],other results
CC(=O)OC1C(=O)[C@]2(C)C(O)CC3OCC3(OC(C)=O)C2C(OC(=O)c2ccccc2)C2(O)CC(OC(=O)C(O)C(NC(=O)C(C)C)c3ccccc3)C(C)=C1C2(C)C (some centres unmarked) [Canadensol],100.00,1.598,94.12,1.504,77.97,1.246,50.81,0.812,1.63,0.026,1.13,0.018,21.3,"inhibiting the growth of A2780 (comparison) (A2780 cells; FIGS. 6, 7 and Table I): as active as paclitaxel or taxcultine; period in which antitumor effect was significant ([1]; given twice at 40 mg/kg, iv): significant from day 30 to day 40 of tumor growth; antitumor activity ([1]; given twice at 40 mg/kg, iv, FIG. 9): induce antitumor activity; concentration dependence of tubulin polymerisation (tubulin): concentration dependent antimitotic effect; concentration dependence of tubulin polymerisation (tubulin; [3]): dose-dependent response; enhancement of tubulin polymerisation / antimitotic activity (tubulin): more effective; enhancement of tubulin polymerisation / antimitotic activity (tubulin; [3]): greater enhancement of tubulin polymerisation than semi-synthetic Taxcultine (ssT) or paclitaxel (P); tubulin polymerisation / antimitotic activity compared with paclitaxel (tubulin): more active than paclitaxel and taxcultine; also recorded: higher antimitotic activity than paclitaxel; tubulin polymerisation / antimitotic activity compared with paclitaxel (tubulin; [3]): higher degree of tubulin polymerisation than Paclitaxel; toxic effect [2]: No toxic effect was observed"
CCCC(=O)N[C@@H](c1ccccc1)[C@@H](O)C(=O)O[C@H]1C[C@@]2(O)[C@@H](OC(=O)c3ccccc3)[C@@H]3[C@]4(OC(C)=O)CO[C@@H]4C[C@H](O)[C@@]3(C)C(=O)[C@H](OC(C)=O)C(=C1C)C2(C)C [taxcultine],100.00,1.535,100.07,1.536,71.21,1.093,36.09,0.554,2.08,0.032,1.43,0.022,–,IC50 (A2780 cells): 16 nM
CC(=O)O[C@H]1C(=O)[C@@]2(C)[C@H]([C@H](OC(=O)c3ccccc3)[C@]3(O)C[C@H](OC(=O)[C@H](O)[C@@H](NC(=O)c4ccccc4)c4ccccc4)C(C)=C1C3(C)C)[C@]1(OC(C)=O)CO[C@@H]1C[C@@H]2O [paclitaxel],101.54,1.455,102.16,1.464,81.09,1.162,36.43,0.522,1.47,0.021,1.40,0.02,17,"antitumor activity ([1]; tolerable doses (20-40 mg/Kg), iv day 1 and day 3): no significant antitumor activity"

# From patent US20020045771A1, “Family of canadensol taxanes, the semi-synthetic preparation and therapeutic use thereof” (Institut National de la Recherche Scientifique, priority 1996, published 2002)
